# According to patent US10682413B2, “Pharmaceutical forms of diazabicyclooctane derivatives and process for producing the same” (Fedora Pharmaceuticals Inc., priority 2017, dated 2020):
# Assay: Decomposition of Compound (I) in aqueous solutions
# Type: physicochemical
# From the text: The present application is directed to a pharmaceutical composition of Compound (I) suitable for parenteral administration. […] Applicant discovered a lyophilisate formulation comprising a sugar and Compound (I) to afford an amorphous lyophilisate suitable for intravenous administration.
compound,measurement,value
"NCCONC(=O)[C@@H]1CC[C@@H]2CN1C(=O)N2OS(=O)(=O)O [Compound (I), (2S, 5R)—N-(2-aminoethoxy)-7-oxo-6-(sulfooxy)-1,6-diazabicyclo[3.2.1]octane-2-carboxamide]",stability in aqueous solutions,undergoes decomposition and dimerization in aqueous solutions
